# Data from EP0302379A1, “Naphthothiazepine derivatives and a process for preparing the same” (TANABE SEIYAKU CO., LTD., priority 1987, dated 1989).
# Where a name gives a salt, the structure may show the parent alone.
# Test system: spontaneously hypotensive rats (SHR)
# Experiment: Hypotensive activity: systolic blood pressure by tail plethysmographic technique after oral dosing
# Type: in vivo
# Settings: 30 mg/kg orally, SHR fasted overnight
# Procedure: A test compound dissolved or suspended in water was administered orally at a dose of 30 mg/kg to spontaneously […] (SHR) fasted overnight, and the systolic blood pressure of the rats was measured at intervals by the tail plethysmographic technique (The Journal of Laboratory and Clinical Medicine, Vol. 78(1971), page 957). The hypotensive activity of the test compound was estimated in terms of "Decrease in Blood pressure (Δ mm Hg)" which was calculated by the following formula: Decrease in Blood pressure (Δ mm Hg) = [formula]
smiles,measurement,setting,value
"COc1ccc([C@@H]2Sc3ccc4ccccc4c3N(CCN(C)C)C(=O)[C@@H]2OC(C)=O)cc1 (racemic) [Test compound, (±)-cis-2-(4-methoxyphenyl)-3-acetoxy-5-[2-dimethylamino)ethyl]-2,3-dihydro-naphtho[2,1-b][1,5]thiazepin-4(5H)-one fumarate]",Decrease in Blood pressure,Time after dosing 1 hr,58.3±8.8 Δmm Hg
same,Decrease in Blood pressure,Time after dosing 2 hrs,51.3±7.7 Δmm Hg
same,Decrease in Blood pressure,Time after dosing 5 hrs,34.0±6.2 Δmm Hg
